Reference: US6723726B1 (SmithKline Beecham Corporation, priority 1996, dated 2004)
pIC50: −log10 of the molar value. Where a name gives a salt, the structure may show the parent alone. Read-outs that look alike come from different tables or passages of the source.

Columns and labels:
[1] = molecular target: T1, c-erbB-2 (baculovirus expressed recombinant intracellular domain) (Homo sapiens, UniProt P04626); test: Substrate phosphorylation assay, c-erbB-2; format: biochemical; conditions: ATP and peptide at Km, 30 min, room temperature
T1 construct: baculovirus expressed, recombinant constructs of the intracellular domains of c-erbB-2 and c-erbB-4 that are constitutively active; made in house
T1 sequence (P04626 676-1255 limits assumed): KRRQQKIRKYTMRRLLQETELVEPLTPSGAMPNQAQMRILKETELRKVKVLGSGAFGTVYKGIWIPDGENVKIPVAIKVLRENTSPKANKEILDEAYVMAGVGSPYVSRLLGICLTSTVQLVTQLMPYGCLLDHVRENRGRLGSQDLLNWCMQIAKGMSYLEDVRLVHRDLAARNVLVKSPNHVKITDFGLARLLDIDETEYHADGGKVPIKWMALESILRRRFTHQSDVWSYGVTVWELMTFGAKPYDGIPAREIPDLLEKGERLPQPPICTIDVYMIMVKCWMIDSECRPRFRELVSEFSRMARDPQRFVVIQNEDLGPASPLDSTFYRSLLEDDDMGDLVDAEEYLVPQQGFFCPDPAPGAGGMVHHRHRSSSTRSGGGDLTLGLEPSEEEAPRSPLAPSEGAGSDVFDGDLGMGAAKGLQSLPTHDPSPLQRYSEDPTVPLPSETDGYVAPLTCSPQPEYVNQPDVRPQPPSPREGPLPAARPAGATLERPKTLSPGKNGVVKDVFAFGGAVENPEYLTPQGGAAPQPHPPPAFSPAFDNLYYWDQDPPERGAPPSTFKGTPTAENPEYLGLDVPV
Description: (§1) The substrate phosphorylation assays use baculovirus expressed, recombinant constructs of the intracellular domains of c-erbB-2 and c-erbB-4 that are constitutively active and EGFr isolated from solubilised A431 cell membranes. The method measures the ability of the isolated enzymes to catalyse the transfer of the γ-phosphate from ATP onto tyrosine residues in a biotinylated synthetic peptide (Biotin-[…]. […] The reaction is stopped by the addition of EDTA (final concentration 0.15 mM) and a sample is transferred to a streptavidin-coated 96-well plate. The plate is washed and level of phosphotyrosine on the peptide is determined using a Europium-labelled antiphosphotyrosine antibody and quantified with a time-resolved fluorescence technique.

[2] = molecular target: T2, c-erbB-4 (baculovirus expressed recombinant intracellular domain) (Homo sapiens, UniProt Q15303); test: Substrate phosphorylation assay, c-erbB-4; format: biochemical; conditions: ATP and peptide at Km, 30 min, room temperature
T2 construct: baculovirus expressed, recombinant constructs of the intracellular domains of c-erbB-2 and c-erbB-4 that are constitutively active; made in house
T2 sequence (Q15303 676-1308 limits assumed): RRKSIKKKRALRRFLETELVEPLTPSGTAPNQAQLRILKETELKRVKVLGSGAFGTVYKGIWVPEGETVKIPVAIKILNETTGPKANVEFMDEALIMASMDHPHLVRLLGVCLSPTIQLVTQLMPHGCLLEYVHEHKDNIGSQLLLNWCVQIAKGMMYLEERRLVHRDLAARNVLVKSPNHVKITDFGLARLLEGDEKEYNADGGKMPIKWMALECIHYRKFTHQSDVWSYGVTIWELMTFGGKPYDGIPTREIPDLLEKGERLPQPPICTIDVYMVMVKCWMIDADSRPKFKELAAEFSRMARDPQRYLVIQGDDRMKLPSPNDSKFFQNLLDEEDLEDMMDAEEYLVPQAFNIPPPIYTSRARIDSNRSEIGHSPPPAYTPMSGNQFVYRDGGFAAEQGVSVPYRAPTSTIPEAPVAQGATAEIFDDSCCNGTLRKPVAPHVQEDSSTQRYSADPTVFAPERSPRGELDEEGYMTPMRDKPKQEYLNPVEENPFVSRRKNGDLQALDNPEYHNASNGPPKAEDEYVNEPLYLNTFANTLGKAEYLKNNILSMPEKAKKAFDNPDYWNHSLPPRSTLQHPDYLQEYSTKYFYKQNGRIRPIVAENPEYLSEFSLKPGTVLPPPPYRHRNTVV
Description: as §1

HB4a erbB-2 cells = test: Cell proliferation assay, HB4a transformed by over-expression of c-erbB-2; format: cell-based, human; conditions: read-out: Cell Proliferation HB4a erbB-2 IC50
Description: (§2) The cell proliferation assay uses an immortalised human breast epithelial cell line (HB4a) which has been transformed by over-expression of c-erbB-2. Growth of these cells in low serum is dependent upon the c-erbB-2 tyrosine kinase activity. The specificity of the effect of the test compounds on tyrosine kinase dependent growth over general toxicity is assessed by comparison to an HB4a cell line which has been transfected with ras. Cells are plated at 3000/well in 96-well plates in 0.1 ml medium and allowed to attach overnight, test compound is added in 0.1 ml medium, with a final concentration of 0.5% DMSO, and the plates incubated for 4 days at 37° C. The cells are then examined microscopically for evidence of morphological detransformation and cell mass is estimated by staining with methylene blue and measuring the absorbance at 620 nm. The results are shown in Table 1 below as the IC50 values in nM. Activity against a range of naturally occurring EGFr or c-erbB-2 over-expressing human tumour cell lines (BT474-breast, HN5-head and neck, N87-gastric and Calu3-lung) is assessed with selected compounds by the same methodology. The results are also shown in Table 1 below as the IC50 values in nM.

HB4a ras cells = test: Cell proliferation assay, HB4a transfected with ras (general toxicity comparison); format: cell-based, human; conditions: read-out: Cell Proliferation HB4a ras IC50
Description: as §2

BT474 cells = test: Cell proliferation assay, BT474 breast tumour cell line; format: cell-based, human; conditions: read-out: Cell Proliferation BT474 IC50
Description: as §2

N87 cells = test: Cell proliferation assay, N87 gastric tumour cell line; format: cell-based, human; conditions: read-out: Cell Proliferation N87 IC50
Description: as §2

Calu3 cells = test: Cell proliferation assay, Calu3 lung tumour cell line; format: cell-based, human; conditions: Homo sapiens, Calu-3, 96 h, read-out: Cell Proliferation Calu3 IC50
Description: as §2

HN5 cells = test: Cell proliferation assay, HN5 head and neck tumour cell line; format: cell-based; conditions: Homo sapiens, HN5, 96 h, read-out: Cell Proliferation HN5 IC50
Description: as §2

[3] = molecular target: T3, EGFr isolated from solubilised A431 cell membranes (Homo sapiens, UniProt P00533); test: Substrate phosphorylation assay, EGFr; format: biochemical; conditions: ATP and peptide at Km, 30 min, room temperature
T3 construct: EGFr isolated from solubilised A431 cell membranes; endogenous in cells; host or cells: A431 cell membranes (solubilised)
T3 sequence (P00533 25-1210): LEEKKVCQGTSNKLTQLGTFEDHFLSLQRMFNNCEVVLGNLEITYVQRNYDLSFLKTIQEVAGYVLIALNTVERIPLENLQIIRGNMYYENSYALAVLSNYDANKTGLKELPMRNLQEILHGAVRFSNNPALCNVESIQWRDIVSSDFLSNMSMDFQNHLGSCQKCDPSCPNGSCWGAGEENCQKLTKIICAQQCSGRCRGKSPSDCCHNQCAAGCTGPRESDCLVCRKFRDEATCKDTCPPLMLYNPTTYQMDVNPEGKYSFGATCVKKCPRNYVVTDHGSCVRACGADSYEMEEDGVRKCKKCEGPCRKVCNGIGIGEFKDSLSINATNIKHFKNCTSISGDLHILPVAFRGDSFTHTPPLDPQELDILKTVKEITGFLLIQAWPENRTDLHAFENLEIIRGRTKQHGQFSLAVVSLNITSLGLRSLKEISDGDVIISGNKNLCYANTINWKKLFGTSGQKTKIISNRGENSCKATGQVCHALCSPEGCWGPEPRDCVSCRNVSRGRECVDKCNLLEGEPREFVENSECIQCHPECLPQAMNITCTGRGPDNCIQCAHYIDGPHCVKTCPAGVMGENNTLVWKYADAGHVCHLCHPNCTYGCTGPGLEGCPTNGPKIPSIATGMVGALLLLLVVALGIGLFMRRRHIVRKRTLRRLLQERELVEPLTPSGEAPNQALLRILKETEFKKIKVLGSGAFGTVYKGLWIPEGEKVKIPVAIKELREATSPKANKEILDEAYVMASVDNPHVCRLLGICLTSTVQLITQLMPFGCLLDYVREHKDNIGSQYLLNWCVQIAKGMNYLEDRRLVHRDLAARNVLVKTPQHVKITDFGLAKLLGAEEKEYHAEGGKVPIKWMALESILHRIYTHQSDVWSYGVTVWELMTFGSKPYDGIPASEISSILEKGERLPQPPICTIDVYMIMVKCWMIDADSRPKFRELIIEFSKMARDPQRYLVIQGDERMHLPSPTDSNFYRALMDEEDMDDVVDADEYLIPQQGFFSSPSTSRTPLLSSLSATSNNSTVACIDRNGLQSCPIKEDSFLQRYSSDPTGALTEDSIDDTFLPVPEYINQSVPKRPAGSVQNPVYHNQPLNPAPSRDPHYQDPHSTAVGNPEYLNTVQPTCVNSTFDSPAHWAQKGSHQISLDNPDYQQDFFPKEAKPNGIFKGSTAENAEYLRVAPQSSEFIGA
Description: as §1

[4] = Homo sapiens, HB4a, 96 h, 4 days, methylene blue staining
[5] = Homo sapiens, BT-474, 96 h, 4 days, methylene blue staining
[6] = Homo sapiens, 96 h, 4 days, methylene blue staining
[7] = 4 days, methylene blue staining

SMILES	pIC50 [1]	pIC50 [2]	pIC50 (HB4a erbB-2 cells; [4])	pIC50 (HB4a ras cells; [4])	pIC50 (BT474 cells; [5])	pIC50 (N87 cells; [6])	pIC50 (Calu3 cells; [7])	pIC50 (HN5 cells; [7])	pIC50 (HB4a erbB-2 cells; Homo sapiens, HB4a, 96 h)	pIC50 (HB4a ras cells; Homo sapiens, HB4a, 96 h)	pIC50 (BT474 cells; Homo sapiens, BT-474, 96 h)	pIC50 (N87 cells; Homo sapiens, 96 h)	pIC50 (Calu3 cells)	pIC50 (HN5 cells)	pIC50 [3]	pIC50 (HB4a erbB-2 cells; [7])	pIC50 (HB4a ras cells; [7])	pIC50 (BT474 cells; [7])	pIC50 (N87 cells; [7])
CS(=O)(=O)CCNCc1ccc(-c2cc3c(Nc4ccc5c(cnn5Cc5ccccc5)c4)ncnc3cn2)o1 [Example 34, (1-Benzyl-1H-indazol-5-yl)-(6-(5-((2-methanesuphonyl-ethylamino)-methyl)-furan-2-yl)-pyrido-[3,4-d]pyrimidin-4-yl)-amine Hydrochloride]	7.82	6.64	7.15	4.77	8.70	6.72	5.89	6.72	–	–	–	–	–	–	–	–	–	–	–
CN1CCN(c2cc3c(Nc4ccc5c(cnn5Cc5ccccc5)c4)ncnc3cn2)CC1 [Example 32, (1-Benzyl-1H-indazol-5-yl)-(6-(4-methyl-piperazin-1-yl)-pyrido[3,4-d]pyrimidin-4-yl)-amine]	7.26	6.85	7.00	5.06	6.00	6.22	5.09	5.38	–	–	–	–	–	–	–	–	–	–	–
CN(C)c1cc2c(Nc3ccc4c(cnn4Cc4cccc(F)c4)c3)ncnc2cn1 [Example 16, N4-(1-(3-Fluoro-benzyl)-1H-indazol-5-yl)-N6,N6-dimethyl-pyrido[3,4-d]pyrimidine-4.6-diamine Hydrochloride]	8.05	7.02	7.36	4.96	9.00	6.92	6.74	7.09	–	–	–	–	–	–	–	–	–	–	–
CN(C)c1cc2c(Nc3ccc4nc(Cc5ccccc5)[nH]c4c3)ncnc2cn1 [Example 7, N4-(2-Benzyl-1H-benzimidazol-5-yl)-N6,N6-dimethyl-pyrido[3,4-d]pyrimidine-4,6-diamine]	8.15	7.68	5.72	4.72	6.21	–	5.10	–	–	–	–	–	–	–	–	–	–	–	–
CN(C)c1cc2c(Nc3ccc4c(cnn4Cc4ccccc4)c3)ncnc2cn1 [Example 2, N 4-(1-Benzyl-1H-indazol-5-yl)-N6,N6-dimethyl-pyrido[3,4-d]pyrimidine-4.6-diamine]	7.72	7.70	–	–	–	–	–	–	6.96	4.77	6.85	6.62	6.42	6.52	–	–	–	–	–
Cc1nnc(-c2cc3c(Nc4ccc5c(cnn5Cc5ccccc5)c4)ncnc3cn2)o1 [Example 29, (1-Benzyl-1H-indazol-5-yl)-(6-(5-methyl-1,3,4-oxadiazol-2-yl)-pyrido[3,4-d]pyrimidin-4-yl)-amine Hydrochloride]	8.70	5.26	5.28	4.54	4.96	5.00	–	–	–	–	–	–	–	–	8.70	–	–	–	–
Cn1cncc1-c1cc2c(Nc3ccc4c(cnn4Cc4ccccc4)c3)ncnc2cn1 [Example 11, (1-Benzyl-1H-indazol-5-yl)-(6-(3-methyl-3H-imidazol-4-yl)-pyrido[3,4-d]pyrimidin-4-yl)-amine]	8.05	7.26	5.85	5.42	5.85	6.43	5.92	5.85	–	–	–	–	–	–	7.82	–	–	–	–
c1ccc(Cn2ncc3cc(Nc4ncnc5cnc(N6CCCCC6)cc45)ccc32)cc1 [Example 25]	7.22	6.24	–	–	–	–	–	–	–	–	–	–	–	–	6.42	6.32	< 4.30	6.57	6.03
CNc1cc2c(Nc3ccc4c(cnn4Cc4ccccc4)c3)ncnc2cn1 [Example 37, N4-(1-Benzyl-1H-indazol-5-yl)-N6-methyl-pyrido[3,4-d]pyrimidine-4,6diamine]	7.19	6.74	6.28	4.77	5.96	5.66	5.43	5.70	–	–	–	–	–	–	7.52	–	–	–	–
NC(=O)[C@@H]1CCCN1Cc1ccc(-c2cc3c(Nc4ccc5c(cnn5Cc5ccccc5)c4)ncnc3cn2)o1 [Example 10, (2S)1-(5-(4-(1-Benzyl-1H-indazol-5-ylamino)-6-pydrido[3,4-d]pyrimidin-6-yl)-furan-2-ylmethyl)-pyrrolidine-2-carboxylic Acid Amide Hydrochloride]	8.22	8.00	7.15	4.68	8.70	8.70	6.80	6.89	–	–	–	–	–	–	–	–	–	–	–
